Measurements from ChEMBL document CHEMBL6177929, “Synthesis and screening of novel 2,4-bis substituted quinazolines as tubulin polymerization promoters and antiproliferative agents” (RSC Med Chem, 2025).
Activity calls are given as the source filed them. The calls are words filed in the database; no cut-off is given here.

Key:
MCF7 = experiment: Antiproliferative activity against human MCF7 cells assessed as reduction in cell viability incubated for 48 hrs by MTT assay; assay type: functional, cell-based; conditions: MCF7, 48 h
SH-SY5Y [1] = experiment: Antiproliferative activity against human SH-SY5Y cells assessed as reduction in cell viability incubated for 48 hrs by MTT assay; assay type: functional, cell-based
HCT-116 = experiment: Antiproliferative activity against human HCT-116 cells assessed as reduction in cell viability incubated for 48 hrs by MTT assay; assay type: functional, cell-based; conditions: HCT-116, 48 h
SH-SY5Y [2] = experiment: Induction of cell cycle arrest in human SH-SY5Y cells assessed as accumulation of cells at S phase at 5 uM incubated for 48 hrs by LSRFortessa cell analyzer (reference value: 16.2%); assay type: functional
SH-SY5Y [3] = experiment: Induction of apoptosis in human SH-SY5Y cells assessed as late apoptotic cells at 5 uM incubated for 48 hrs by Annexin V-FITC/PI staining based flow cytometry analysis (reference value: 3.0%); assay type: functional
SH-SY5Y [4] = experiment: Induction of apoptosis in human SH-SY5Y cells assessed as viable cells at 5 uM incubated for 48 hrs by Annexin V-FITC/PI staining based flow cytometry analysis (reference value: 91.3%); assay type: functional; conditions: read-out: Activity
SH-SY5Y [5] = experiment: Induction of cell cycle arrest in human SH-SY5Y cells assessed as accumulation of cells at G1/G0 phase at 5 uM incubated for 48 hrs by LSRFortessa cell analyzer (reference value: 50.1%); assay type: functional
SH-SY5Y [6] = experiment: Induction of apoptosis in human SH-SY5Y cells assessed as necrotic cells at 5 uM incubated for 48 hrs by Annexin V-FITC/PI staining based flow cytometry analysis (reference value: 0.7%); assay type: functional
SH-SY5Y [7] = experiment: Induction of cell cycle arrest in human SH-SY5Y cells assessed as accumulation of cells at G2/M phase at 5 uM incubated for 48 hrs by LSRFortessa cell analyzer (reference value: 28.4%); assay type: functional
SH-SY5Y [8] = experiment: Induction of apoptosis in human SH-SY5Y cells assessed as early apoptotic cells at 5 uM incubated for 48 hrs by Annexin V-FITC/PI staining based flow cytometry analysis (reference value: 2.0%); assay type: functional
Tubulin (Homo sapiens) [9] = target: T1, Tubulin (Homo sapiens) (UniProt P68371+Q9H4B7+P0DPH7+P68366+Q13509+Q71U36+P04350+Q3ZCM7+P07437+P68363+Q9BQE3+Q6PEY2+Q13885+Q9BVA1+Q9BUF5); experiment: Inhibition of tubulin polymerization (unknown origin) at 5 uM incubated for 60 mins measured every 1 mins by spectrophotometric analysis; assay type: protein-complex assay
SH-SY5Y [10] = experiment: Induction of mitochondrial membrane potential in human SH-SY5Y cells assessed as mitochondria depolarization at 5 uM incubated for 48 hrs by synergy H1 microplate reader analysis; assay type: functional, cell-based
HEK-293T = experiment: Cytotoxicity against human HEK293T cells at 25 uM incubated for 48 hrs by MTT assay; assay type: toxicity, cell-based
Tubulin (Homo sapiens) [11] = target: T1, Tubulin (Homo sapiens); experiment: Inhibition of tubulin polymerization (unknown origin) at 1 uM incubated for 60 mins measured every 1 mins by spectrophotometric analysis; assay type: protein-complex assay

IC50 (MCF7) [µM] | IC50 (SH-SY5Y [1]) [µM] | IC50 (HCT-116) [µM] | inhibition (Tubulin (Homo sapiens) [9]) | inhibition (Tubulin (Homo sapiens) [11]) | Structure (SMILES) | Activity (SH-SY5Y [2]) [%] | Activity (SH-SY5Y [3]) [%] | viability at 5 µM (SH-SY5Y [4]) [%] | Activity (SH-SY5Y [5]) [%] | Activity (SH-SY5Y [6]) [%] | Activity (SH-SY5Y [7]) [%] | Activity (SH-SY5Y [8]) [%] | Activity (SH-SY5Y [10]) | Activity (HEK-293T)
14.6 | 18.9 | > 25 | – | – | c1ccc2c(N3CCOCC3)nc(N3CCOCC3)nc2c1 | – | – | – | – | – | – | – | – | –
12.8 | > 25 | 9.19 | – | – | c1ccc(N2CCN(c3nc(N4CCN(c5ccccc5)CC4)c4ccccc4n3)CC2)cc1 | – | – | – | – | – | – | – | – | –
21.8 | > 25 | > 25 | – | – | c1ccc(CN2CCN(c3nc(N4CCN(Cc5ccccc5)CC4)c4ccccc4n3)CC2)cc1 | – | – | – | – | – | – | – | – | –
24.1 | > 25 | 21.3 | – | – | COc1cc2c(N3CCN(C)CC3)nc(N3CCN(C)CC3)nc2c(OC)c1OC | – | – | – | – | – | – | – | – | –
11.5 | 15.7 | 9.43 | – | – | c1ccc2c(-n3ccnc3)nc(-n3ccnc3)nc2c1 | – | – | – | – | – | – | – | – | –
18.8 | 15.9 | > 25 | – | – | COc1cc2c(N3CCOCC3)nc(N3CCOCC3)nc2c(OC)c1OC | – | – | – | – | – | – | – | – | –
19 | 15.3 | 17.5 | – | – | c1ccc2c(-n3cnnc3)nc(-n3cnnc3)nc2c1 | – | – | – | – | – | – | – | – | –
23.1 | > 25 | 13.8 | – | – | COc1cc2c(-n3cnnc3)nc(-n3cnnc3)nc2c(OC)c1OC | – | – | – | – | – | – | – | – | –
> 25 | 23.8 | 20.7 | – | – | CN1CCN(c2nc(N3CCN(C)CC3)c3ccccc3n2)CC1 | – | – | – | – | – | – | – | – | –
4.25 | 9.91 | 2.65 | Active | inactive | COc1cc2c(-n3ccnc3)nc(-n3ccnc3)nc2c(OC)c1OC | 6.8 | 50.3 | 33.3 | 11.3 | 6.8 | 79 | 9.6 | Active | Non-toxic
15.3 | 11 | > 25 | – | – | c1ccc2c(-n3nnc4ccccc43)nc(-n3nnc4ccccc43)nc2c1 | – | – | – | – | – | – | – | – | –
3.45 | 8.14 | 7.25 | – | – | COc1cc2c(-n3nnc4ccccc43)nc(-n3nnc4ccccc43)nc2c(OC)c1OC | 7.7 | 51.8 | 35.9 | 78.9 | 2 | 8.4 | 10.3 | inactive | Non-toxic

Structure (SMILES) | IC50 (MCF7) [µM] | IC50 (SH-SY5Y [1]) [µM] | IC50 (HCT-116) [µM] | inhibition (Tubulin (Homo sapiens) [9]) | inhibition (Tubulin (Homo sapiens) [11]) | Activity (SH-SY5Y [2]) [%] | Activity (SH-SY5Y [3]) [%] | viability at 5 µM (SH-SY5Y [4]) [%] | Activity (SH-SY5Y [5]) [%] | Activity (SH-SY5Y [6]) [%] | Activity (SH-SY5Y [7]) [%] | Activity (SH-SY5Y [8]) [%] | Activity (SH-SY5Y [10]) | Activity (HEK-293T)
COc1cc2c(c(OC)c1OC)-c1ccc(OC)c(=O)cc1[C@@H](NC(C)=O)CC2 [COLCHICINE] | 4.48 | 6.82 | 1.65 | – | – | 4.1 | 54.5 | 35.1 | 5.1 | 3.9 | 90 | 6.5 | – | –
